Data on 2 compounds can be found in article PMC7018972, “Novel and selective inactivators of Triosephosphate isomerase with anti-trematode activity” (Scientific Reports, 2020).

Molecules are shown by their SMILES. Where two headings read alike, the source gives them in different places. A value given as a limit tells only on which side of the number the result lay.

In data set [1] the target is Fasciola hepatica TIM (FhTIM) (Fasciola hepatica, UniProt S4UI50). Nature of the data set: Inhibition of recombinant FhTIM, coupled enzyme assay. The class given is biochemical. The method, boiled down: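 E. coli-expressed FhTIM preincubated with compound 1 h at 37 °C in 100 mM triethanolamine, 10 mM EDTA, pH 7.4, 10% DMSO. Aliquot diluted into coupled assay (1 mM glyceraldehyde-3-phosphate, 0.2 mM NADH, α-glycerol phosphate dehydrogenase, pH 7.4) with NADH decrease at 340 nm, 38 °C. Triplicate, two independent experiments.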
Sequence of Fasciola hepatica TIM (FhTIM) (S4UI50 entry or part of it): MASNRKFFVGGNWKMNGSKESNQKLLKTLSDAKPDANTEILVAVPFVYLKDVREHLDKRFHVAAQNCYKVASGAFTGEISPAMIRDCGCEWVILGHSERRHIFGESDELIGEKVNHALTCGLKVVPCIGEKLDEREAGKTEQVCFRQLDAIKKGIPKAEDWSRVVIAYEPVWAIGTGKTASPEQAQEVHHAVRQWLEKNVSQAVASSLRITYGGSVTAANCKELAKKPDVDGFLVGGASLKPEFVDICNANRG

The target in the next data set is FhTIM (Fasciola hepatica, UniProt S4UI50). Description: Microscale thermophoresis (MST) binding to FhTIM. As for the experimental part:
MST experiments were performed according to the NanoTemper technologies protocol in a Monolith NT.115 (red/blue) instrument (NanoTemper Technologies, München, Germany[36]). With this technique, the diffusion behavior of a labeled protein is measured when an infrared light excites the movement of the protein in capillaries. This behavior is the combination of two effects: the fast, local environment-dependent responses of the fluorophore to the temperature jump and the slower diffusive thermophoresis fluorescence changes. It will be modified when the protein is complexed with increasing amounts of unlabeled partners, leading to titration curves that can be fit for Kd estimation. In practice, FhTIM was labeled with the Monolith His-Tag Labeling Kit RED-tris-NTA (NanoTemper Technologies, München, Germany), as described by the manufacturer. The experiments were performed using 20% and 40% MST power and between 20–80% LED power at 24 °C. The MST traces were recorded using the standard parameters: 5 s MST power off, 30 s MST power on, and 5 s MST power off. The compounds were used at high concentrations (around 5 mM) in the bindings check assay with DMSO at 5% v/v. If the binding check was positive, then the affinity determination was performed with the same experimental settings, with serial 2x dilutions of the compound of interest.
(Microscale thermophoresis detects binding through changes in fluorescence in a small temperature gradient.)

The test system of data set [2] is murine macrophages and bovine sperm. Nature of the data set: Non-specific toxicity against mammalian cells. The settings on record: for Toxicity mammalian cells: selectivity index parasite vs. mammalian cells, fixed doses 25 and 100 µM. Type of data set: cell-based. As for the experimental part: As a proof of concept, we tested the best FhTIM inactivators against F. hepatica and S. mansoni parasites. Also, we use compound 191 as a non-inhibitor which has a closely related structure to that of compound 187. Some compounds were able to kill 100% of the newly excysted juvenile (NEJ) F. hepatica within 4 to 48 h (Table 2 and Fig. 2). […] In parallel, these compounds were assayed to characterize their non-specific toxicity against murine macrophages and bovine sperm. Both models are recommended by FDA as an in vitro prediction of toxicology.
J774.1 murine macrophage cells (ATCC, USA) were grown in DMEM culture milieu containing 4 mM glutamine and supplemented with 10% FCS[20]. The cells were seeded in a 96-well plate (5×10^4 cells in 200 µL culture medium) and incubated at 37 °C in a 5% CO2 atmosphere for 48 h, to allow cell adhesion prior to drug testing. Afterward, cells were exposed for 48 h to the compounds (25–400 µM) or the vehicle for control (0.4% DMSO), and additional controls (cells in medium) were used in each test. Cell viability was then assessed by measuring the mitochondria-dependent reduction of MTT (3-(4,5-dimethylthiazol-2-yl)-2,5-diphenyltetrazolium bromide) to formazan. For this purpose, MTT in sterile PBS (0.2% glucose), pH 7.4, was added to the macrophages to achieve a final concentration of 0.1 mg/mL, and the cells were incubated at 37 °C for 3 h. After removing the medium, formazan crystals were dissolved in 180 µL of DMSO and 20 µL of MTT buffer (0.1 M glycine, 0.1 M NaCl, 0.5 mM EDTA, pH 10.5), and the absorbance at 560 nm was measured. The IC50 was defined as the drug concentration at which 50% of the cells were viable, relative to the control (no drug added), and was determined by analysis using OriginLab8.5® sigmoidal regression (% of viable cells vs. the logarithm of the compound concentration). Tests were performed in triplicate.
Semen samples were obtained from a healthy fertile Hereford bull and kept frozen in 0.5 mL straws (extended in Andromed, Minitube, Germany[47]) under liquid nitrogen until use. The semen used belonged to a single freezing batch that was obtained during a regular collection schedule with an artificial vagina. Samples from three straws were thawed and a sperm pool was prepared in PBS at a concentration of 40 million spermatozoa per mL, then 50 μL of this sperm suspension was carefully mixed with 50 μL of compounds diluted to 100, 50, 25, 12.5 and 6.25 μM or with 1% DMSO in control experiments. Each condition was assayed by duplicate in 96-well plates and controls were assayed by triplicate. Plates were incubated at 37 °C for 1 h with moderate shaking. The motility analysis was carried out using a CASA (Computer Assisted Semen Analyzer) system Androvision (Minitube, Tiefenbach, Germany) with an Olympus BX 41 microscope (Olympus, Japan) equipped with a warm-stage at 37 °C. Each sample (10 μL) was placed onto a Makler Counting Chamber (depth 10 μm, Sefi-Medical Instruments, Israel) and the following parameters were evaluated: percentage of total motile spermatozoa (motility >5 μm/s) and velocity curved line (VCL, >24 μm/s). At least 400 spermatozoa were analyzed from each sample from at least four microscope fields.

Where [3] appears, read: Figure 1, ranges of inhibitory activity, read-out: IC50 range.
The mark [4] stands for this setting: recombinant FhTIM, 1 h incubation with compound at 37 °C, read-out: IC50.

Sequence of FhTIM (S4UI50 entry or part of it): as above

For `Cc1ccc(-c2nsc(S(=O)(=O)c3ccc(C)cc3)n2)cc1` [Compound 187], the IC50 was < 50 µM in data set [1] (setting [3]); < 25 µM in data set [1] (Table 1S, screening of 340 compounds in FhTIM, table head prints no unit, µM per b8/b9, read-out: IC50); 4 ± 0.2 µM in data set [1] (setting [4]). The Kd worked out at 0.07 ± 0.01 µM at FhTIM (24 °C) and 0.066 µM at FhTIM (abstract). For the same compound, the “toxicity to mammalian cells in words” value in data set [2] (herein) is on record as “non-toxic”. Moreover, the Toxicity mammalian cells result in data set [2] was “NT (when the IC50 vs. the parasite was at least 10 times less than the IC50 vs. the mammalian cells, we considered these compounds as non-toxic (NT))”.
As to `CSc1nc2cc(Cl)c(Oc3cccc(Cl)c3Cl)cc2[nH]1` [Compound 1278, triclabendazole, reference compound], the IC50 in data set [1] (setting [3]) is < 50 µM; in data set [1] (setting [4]) it was 7 ± 1 µM. Also, the Kd at FhTIM (24 °C) worked out at 1000 µM. Further, in data set [2], the Toxicity mammalian cells result is “NT (when the IC50 vs. the parasite was at least 10 times less than the IC50 vs. the mammalian cells, we considered these compounds as non-toxic (NT))”.

Broadly, the IC50 is the concentration at which inhibition is half-maximal. The Kd is the equilibrium constant for the complex coming apart.
